Consider 64 compounds from ChEMBL document CHEMBL3880421, “Indazole compounds and pharmaceutical compositions for inhibiting protein kinases, and methods for their use” (2003).

Common to all, as to assay type: functional
What all share (settings): Homo sapiens

Assay [1] in a line: Antiproliferative activity against VEGF-stimulated HUVEC cells assessed as reduction in cell viability at 10 nM preincubated for 1 hr followed by addition of VEGF measured after 72 hrs by MTT assay. On the technique in general: Tetrazolium dyes change colour on reduction, which living cells bring about.
Assay [2] can be described thus: Antiproliferative activity against VEGF-stimulated HUVEC cells assessed as reduction in cell viability at 2 nM preincubated for 1 hr followed by addition of VEGF measured after 72 hrs by MTT assay.
A short description of assay [3]: Antiproliferative activity against VEGF-stimulated HUVEC cells assessed as reduction in cell viability at 0.5 nM preincubated for 1 hr followed by addition of VEGF measured after 72 hrs by MTT assay.

With `CC(C)(C)c1ccc(C(=O)Nc2cccc(Oc3ccc4c(/C=C/c5ccccc5)n[nH]c4c3)c2)o1`, in assay [1], the inhibition at 0.01 µM is 52%.
For `CC(C)CC(O)C(=O)Nc1cccc(Oc2ccc3c(/C=C/c4ccccc4)n[nH]c3c2)c1` (stereo not given), the inhibition at 0.01 µM in assay [1] is 69%.
For `CC(C)(C)c1ccc(C(=O)Nc2cccc(C(=O)c3ccc4c(/C=C/c5ccccc5)n[nH]c4c3)c2)o1`, the inhibition at 0.01 µM in assay [1] was determined as 71%.
In the case of `O=C1CC[C@H](C(=O)Nc2cccc(C(=O)c3ccc4c(/C=C/c5ccccc5)n[nH]c4c3)c2)N1`, the inhibition at 0.01 µM in assay [1] came to 32%.
The same measure, in the same setting: with `CC(=O)NC(C)(C)CC(=O)Nc1cccc(C(=O)c2ccc3c(/C=C/c4ccccc4)n[nH]c3c2)c1` the figure was 35%; with `Cc1ccc(C2(C(=O)Nc3cccc(C(=O)c4ccc5c(/C=C/c6ccccc6)n[nH]c5c4)c3)CC2)cc1`, 0%; with `CC(C)CC(=O)C(=O)Nc1cccc(Oc2ccc3c(/C=C/c4ccccc4)n[nH]c3c2)c1`, 64%.
For the compound `CC(C)=NOC(C)C(=O)Nc1cccc(C(=O)c2ccc3c(/C=C/c4ccccc4)n[nH]c3c2)c1` (stereo not given), in assay [1], the inhibition at 0.01 µM stood at 28%.
`Cn1cnc(CC(=O)Nc2cccc(Nc3ccc4c(/C=C/c5ccccc5)n[nH]c4c3)c2)c1`: in assay [1], the inhibition at 0.01 µM is -17%.
Consider `O=C(Nc1cccc(Nc2ccc3c(/C=C/c4ccccc4)n[nH]c3c2)c1)C1CC2C=CCC(C2)C1` (stereo not given), for which the inhibition at 0.01 µM in assay [1] is -17%.
Regarding `O=C(Nc1cccc(Oc2ccc3c(/C=C/c4ccccc4)n[nH]c3c2)c1)C1C[C@H]2C[C@@H]1CCC2O` (stereo not given in full), the inhibition at 0.01 µM in assay [1] is 52%.
Consider `CC(=O)N1CCC[C@@H]1C(=O)Nc1cccc(Nc2ccc3c(/C=C/c4ccccc4)n[nH]c3c2)c1`, for which the inhibition at 0.01 µM in assay [1] was -5%.
Turning to `O=C(Nc1cccc(Nc2ccc3c(/C=C/c4ccccc4)n[nH]c3c2)c1)C1CC2CC(O)C1C2` (stereo not given), the inhibition at 0.01 µM in assay [1] is -20%.
Consider `CCC(C(=O)Nc1cccc(C(=O)c2ccc3c(/C=C/c4ccccc4)n[nH]c3c2)c1)c1ccccc1C` (stereo not given), for which the inhibition at 0.01 µM in assay [1] is 3%.
The same measure, in the same setting: for `O=C(Cc1c(F)cccc1F)Nc1cccc(Nc2ccc3c(/C=C/c4ccccc4)n[nH]c3c2)c1` the value was 40%; for `CCO/C(C)=C/C(=O)Nc1cccc(Oc2ccc3c(/C=C/c4ccccc4)n[nH]c3c2)c1`, 87%.
With `CC(C)CC(O)C(=O)Nc1cccc(C(=O)c2ccc3c(/C=C/c4ccccc4)n[nH]c3c2)c1` (stereo not given), the inhibition at 0.01 µM in assay [1] is 47%.
The same measure, in the same setting: for `O=C(c1cccc(NC(=O)C2CCOC2)c1)c1ccc2c(/C=C/c3ccccc3)n[nH]c2c1` (stereo not given) the value was 12%; for `CCO/C(C)=C/C(=O)Nc1cccc(C(=O)c2ccc3c(/C=C/c4ccccc4)n[nH]c3c2)c1`, 72%; for `O=C1NCC(C(=O)Nc2cccc(C(=O)c3ccc4c(/C=C/c5ccccc5)n[nH]c4c3)c2)N1` (stereo not given), 21%.
Turning to `C/C=C(\C)C(=O)Nc1cccc(Nc2ccc3c(/C=C/c4ccccc4)n[nH]c3c2)c1`, the inhibition at 0.01 µM in assay [1] amounted to 98%.
The same measure, in the same setting: with `O=C(/C=C/C1C[C@H]2C=C[C@H]1C2)Nc1cccc(Nc2ccc3c(/C=C/c4ccccc4)n[nH]c3c2)c1` (stereo not given in full) the figure was 30%; with `O=C1C[C@H](C(=O)Nc2cccc(Oc3ccc4c(/C=C/c5ccccc5)n[nH]c4c3)c2)NC(=O)N1`, -6%.
Consider `O=C(Cc1ccccc1)C(=O)Nc1cccc(C(=O)c2ccc3c(/C=C/c4ccccc4)n[nH]c3c2)c1`, for which the inhibition at 0.01 µM in assay [1] is -37%.
As for `Cc1cc(C(=O)Nc2cccc(C(=O)c3ccc4c(/C=C/c5ccccc5)n[nH]c4c3)c2)c(C)[nH]1`, in assay [1], the inhibition at 0.01 µM was 26%.
For `O=C(Cc1ccccc1)C(=O)Nc1cccc(Oc2ccc3c(/C=C/c4ccccc4)n[nH]c3c2)c1`, the inhibition at 0.01 µM in assay [1] was 25%.
The same measure, in the same setting: with `CC(=O)c1ccc(C(=O)Nc2cccc(Nc3ccc4c(/C=C/c5ccccc5)n[nH]c4c3)c2)s1` the figure was 78%.
As to `O=C(Cc1cc(F)cc(F)c1)Nc1cccc(Oc2ccc3c(/C=C/c4ccccc4)n[nH]c3c2)c1`, the inhibition at 0.01 µM in assay [1] turned out to be 80%.
Regarding `O=C(Cc1ccccc1)C(=O)Nc1cccc(Nc2ccc3c(/C=C/c4ccccc4)n[nH]c3c2)c1`, the inhibition at 0.01 µM in assay [1] worked out at 11%.
Consider `C[C@@H]1[C@H](C)[C@H](C)C[C@@H]1C(=O)Nc1cccc(Nc2ccc3c(/C=C/c4ccccc4)n[nH]c3c2)c1`, for which the inhibition at 0.01 µM in assay [1] came out at 7%.
In the case of `CN1CCC=C(C(=O)Nc2cccc(C(=O)c3ccc4c(/C=C/c5ccccc5)n[nH]c4c3)c2)C1`, the inhibition at 0.01 µM in assay [1] came out at 20%.
On the same count and under the same terms, with `C[C@@]12C[C@H]3C[C@H]1C[C@@]3(C(=O)Nc1cccc(C(=O)c3ccc4c(/C=C/c5ccccc5)n[nH]c4c3)c1)C2` the figure was -1%; with `CC1(C)C(C(=O)Nc2cccc(Oc3ccc4c(/C=C/c5ccccc5)n[nH]c4c3)c2)C1(C)C`, 71%.
On to `O=C1C[C@H](C(=O)Nc2cccc(C(=O)c3ccc4c(/C=C/c5ccccc5)n[nH]c4c3)c2)NC(=O)N1`, for which, in assay [1], the inhibition at 0.01 µM was -36%.
Take `CN1CSCCC1C(=O)Nc1cccc(Oc2ccc3c(/C=C/c4ccccc4)n[nH]c3c2)c1` (stereo not given): the inhibition at 0.01 µM in assay [1] is 23%.
For the compound `CN(C)C(=S)SCC(=O)Nc1cccc(C(=O)c2ccc3c(/C=C/c4ccccc4)n[nH]c3c2)c1`, the inhibition at 0.01 µM in assay [1] is 25%.
With `CN1CC(C(=O)Nc2cccc(C(=O)c3ccc4c(/C=C/c5ccccc5)n[nH]c4c3)c2)CC1=O` (stereo not given), in assay [1], the inhibition at 0.01 µM was 10%.
Still for that read-out and setting: for `O=C(/C=C/C(=O)Nc1cccc(Nc2ccc3c(/C=C/c4ccccc4)n[nH]c3c2)c1)NCC1CC1` the value was 13%.
`O=C(NCCCN1CCCC1=O)c1ccccc1Nc1ccc2c(/C=C/c3ccccn3)n[nH]c2c1`: the inhibition at 0.002 µM in assay [2] worked out at 35%. In addition, in assay [3], the inhibition at 0.0005 µM was found to be 25%.
As to `O=C(NCCN1CCNCC1)c1ccccc1Nc1ccc2c(/C=C/c3ccccn3)n[nH]c2c1`, the inhibition at 0.002 µM in assay [2] is 12%. Further, the inhibition at 0.0005 µM in assay [3] worked out at 37%.
The like results for `CC(CO)NC(=O)c1ccccc1Nc1ccc2c(/C=C/c3ccccn3)n[nH]c2c1` (stereo not given) were, in that order, 28% and 19%.
Regarding `CN(NC(=O)c1ccccc1Nc1ccc2c(/C=C/c3ccccn3)n[nH]c2c1)c1ccccc1`, in assay [2], the inhibition at 0.002 µM was 37%. The inhibition at 0.0005 µM in assay [3] came to 16%.
As for `CCn1nccc1NC(=O)c1ccccc1Nc1ccc2c(/C=C/c3ccccn3)n[nH]c2c1`, in assay [2], the inhibition at 0.002 µM worked out at 2%. For the same compound, the inhibition at 0.0005 µM in assay [3] came out at 26%.
`CONC(=O)c1ccccc1Nc1ccc2c(/C=C/c3ccccn3)n[nH]c2c1`: the inhibition at 0.002 µM in assay [2] was 99%. Besides, the inhibition at 0.0005 µM in assay [3] came out at 62%.
For `O=C(NNC(=O)c1ccccc1Nc1ccc2c(/C=C/c3ccccn3)n[nH]c2c1)c1ccco1`, the inhibition at 0.002 µM in assay [2] came to 71%. Further, in assay [3], the inhibition at 0.0005 µM was 26%.
For `CC(C)(CO)CNC(=O)c1ccccc1Nc1ccc2c(/C=C/c3ccccn3)n[nH]c2c1` the same measures were 22% and 8%.
`O=C(NCP(=O)(O)O)c1ccccc1Nc1ccc2c(/C=C/c3ccccn3)n[nH]c2c1`: the inhibition at 0.002 µM in assay [2] was determined as 6%. Also, the inhibition at 0.0005 µM in assay [3] worked out at 32%.
Regarding `C=CCONC(=O)c1ccccc1Nc1ccc2c(/C=C/c3ccccn3)n[nH]c2c1`, in assay [2], the inhibition at 0.002 µM was in the range of 103 to 108%. Besides, the inhibition at 0.0005 µM in assay [3] lay within 51 to 92%.
On to `O=C(NCC1CC1)c1ccccc1Nc1ccc2c(/C=C/c3ccccn3)n[nH]c2c1`, for which the inhibition at 0.002 µM in assay [2] was 53 to 69%. The inhibition at 0.0005 µM in assay [3] was in the range of 25 to 35%.
For `O=CNNC(=O)c1ccccc1Nc1ccc2c(/C=C/c3ccccn3)n[nH]c2c1` the same measures were 29% and 28%.
Consider `CC(C)[C@H](CO)NC(=O)c1ccccc1Nc1ccc2c(/C=C/c3ccccn3)n[nH]c2c1`, for which the inhibition at 0.002 µM in assay [2] is -4%. For the same compound, the inhibition at 0.0005 µM in assay [3] is 47%.
Take `O=C(NCCCN1CCCCCC1)c1ccccc1Nc1ccc2c(/C=C/c3ccccn3)n[nH]c2c1`: in assay [2], the inhibition at 0.002 µM was -5%. In addition, the inhibition at 0.0005 µM in assay [3] was found to be 25%.
As for `CC(C)(C(=O)NNC(=O)c1ccccc1Nc1ccc2c(/C=C/c3ccccn3)n[nH]c2c1)n1cncn1`, in assay [2], the inhibition at 0.002 µM is 90%. The inhibition at 0.0005 µM in assay [3] is 34%.
For `O=C(NCCO)c1ccccc1Nc1ccc2c(/C=C/c3ccccn3)n[nH]c2c1` the same measures were 24% and 18%.
With `C=CCNC(=O)c1ccccc1Nc1ccc2c(/C=C/c3ccccn3)n[nH]c2c1`, the inhibition at 0.002 µM in assay [2] stood at 86%. In assay [3], the inhibition at 0.0005 µM is 30%.
In the case of `O=C(NNc1ccccc1)c1ccccc1Nc1ccc2c(/C=C/c3ccccn3)n[nH]c2c1`, in assay [2], the inhibition at 0.002 µM was 29%. Besides, the inhibition at 0.0005 µM in assay [3] is 18%.
On to `CC(C)OCCCNC(=O)c1ccccc1Nc1ccc2c(/C=C/c3ccccn3)n[nH]c2c1`, for which the inhibition at 0.002 µM in assay [2] came to 99%. The inhibition at 0.0005 µM in assay [3] was 34%.
For the compound `O=C(NCCN1CCOCC1)c1ccccc1Nc1ccc2c(/C=C/c3ccccn3)n[nH]c2c1`, the inhibition at 0.002 µM in assay [2] was 22%. Also, in assay [3], the inhibition at 0.0005 µM is 28%.
Turning to `O=C(N[C@@H]1CCCC[C@@H]1O)c1ccccc1Nc1ccc2c(/C=C/c3ccccn3)n[nH]c2c1`, in assay [2], the inhibition at 0.002 µM came out at 59%. In addition, the inhibition at 0.0005 µM in assay [3] was determined as 26%.
As to `CSc1nc(NC(=O)c2ccccc2Nc2ccc3c(/C=C/c4ccccn4)n[nH]c3c2)nn1C`, the inhibition at 0.002 µM in assay [2] stood at 2%. In assay [3], the inhibition at 0.0005 µM turned out to be 16%.
As to `O=C(NO)c1ccccc1Nc1ccc2c(/C=C/c3ccccn3)n[nH]c2c1`, the inhibition at 0.002 µM in assay [2] stood at 25%. For the same compound, the inhibition at 0.0005 µM in assay [3] turned out to be 7%.
The like results for `O=C(NNC1=NCCN1)c1ccccc1Nc1ccc2c(/C=C/c3ccccn3)n[nH]c2c1` were, in that order, 69% and 34%.
In the case of `O=C(NN1CCOCC1)c1ccccc1Nc1ccc2c(/C=C/c3ccccn3)n[nH]c2c1`, in assay [2], the inhibition at 0.002 µM is 53%. For the same compound, the inhibition at 0.0005 µM in assay [3] was determined as 1%.
Turning to `CC(CN(C)C)NC(=O)c1ccccc1Nc1ccc2c(/C=C/c3ccccn3)n[nH]c2c1` (stereo not given), the inhibition at 0.002 µM in assay [2] stood at 17%. Besides, the inhibition at 0.0005 µM in assay [3] was determined as 23%.

As usually defined, the inhibition is the change of the read-out against control, counted positive when it falls.
